Tested on: H4 APP751 SWE clone 8.20 (H4-8Sw cells), Aβ42 formation
Assay: Inhibition of Aβ42 formation in cultured cells
Type: cell-based
Settings: H4-8Sw cells (H4 neuroglioma stably expressing Swedish mutant APP751), 19 hours incubation, mean±SD, n=2
Procedure: Compounds were assayed for Aβ42 inhibition in cells using H4 APP751 SWE clone 8.20, developed at Bristol-Myers Squibb, an H4 neuroglioma cell line stably expressing the Swedish mutant of APP751. Cells were maintained in log phase through twice weekly passage at a 1:20 dilution. For IC50 determinations, 30 μL cells (1.5×10^4 cells/well) in DMEM media containing 0.0125% BSA (Sigma A8412) were plated directly into 384-well compound plates (Costar 3709) containing 0.1 μL serially diluted compound in DMSO. Following incubation for 19 hours in 5% CO2 at 37° C., plates were briefly centrifuged (1000 rpm, 5 min). Antibody cocktails were freshly prepared by dilution into 40 mM Tris-HCl (pH 7.4) with 0.2% BSA and added to assay plates. For Aβ42 measurements, antibodies specific for the Aβ42 neoepitope (565, developed at Bristol-Myers Squibb; conjugated to the Wallac reagent (Perkin Elmer)) and the N-terminal sequence of Aβ peptide (26D6, developed at SIBIA/Bristol-Myers Squibb; conjugated to APC (Perkin Elmer)) were mixed and 20 μL of the mixture was added to each well of the incubated cell plate yielding a final concentration of 0.8 ng/well 565 and 75 ng/well 26D6. […] Signal was determined using a Viewlux counter (Perkin Elmer) and IC50 values determined using curve fitting in CurveMaster (Excel Fit based).

IC50: 0.12 ± 0.01 nM
Compound: [2H]c1nc(-c2ccc(CN([C@H](CCC(F)(F)F)C(N)=O)S(=O)(=O)c3ccc(Cl)cc3)c(F)c2)no1 [Example 1, (2R)-2-[[(4-Chlorophenyl)sulfonyl][[2-fluoro-4-(1,2,4-oxadiazol-5-deutero-3-yl)phenyl]methyl]amino]-5,5,5-trifluoropentanamide]

— patent US8044077B2, “Alpha-(N-sulfonamido)acetamide compounds incorporating deuterium as inhibitors of beta amyloid peptide production” (Bristol-Myers Squibb Company, priority 2009, dated 2011)
